The text below walks through data of patent US8058243B2, “Method for treating a brain cancer with ifenprodil” (HSC Research and Development Limited Partnership, priority 2006, dated 2011).

Where a name gives a salt, the structure may show the parent alone. Read-outs that look alike come from different tables or passages of the source.

This experiment relates to murine neural precursor cells (neurosphere cultures). In words: HTS of LOPAC library against secondary neurosphere cultures, MTT proliferation assay at 3 μM, day 7 (z score, P value). Format: cell-based, mouse. (Tetrazolium dyes change colour on reduction, which living cells bring about.)
Setting [1] is: LOPAC primary screen, neurosphere MTT proliferation, 3 μM, day 7.
Setting [2] is: yes/no: significantly inhibited neurosphere proliferation (P<0.01) in primary screen.
Where [3] appears, read: yes/no: significantly inhibited neurosphere proliferation in primary screen.
[4] abbreviates: LOPAC library screen, 3 μM, MTT, secondary neurosphere cultures, day 7.
The mark [5] stands for this setting: LOPAC screen, neurosphere MTT proliferation, 3 μM, day 7.
Where [6] appears, read: LOPAC library screen, 3 μM, MTT, neurosphere cultures.
The mark [7] stands for this setting: primary LOPAC screen, 3 μM, MTT, neurosphere proliferation.
Setting [8] is: yes/no: significantly inhibited neurosphere proliferation in the primary screen.
The mark [9] stands for this setting: yes/no: significantly inhibited neurosphere proliferation (P<0.01) in the primary screen.
The mark [10] stands for this setting: LOPAC library screen at 3 μM, secondary neurosphere cultures, MTT.
Where [11] appears, read: yes = significantly inhibited neurosphere proliferation (P<0.01) in the primary screen.

Turning to `COc1cc(CC(=O)O)ccc1O` [4-Hydroxy-3-methoxyphenylacetic acid], the “Z Score” value is −0.5673. Besides, under setting [1], the Z score is −0.567. Moreover, the Activity entry under setting [2] is reported as “no”.
For `Oc1ccc2c3c1O[C@H]1c4oc5ccccc5c4C[C@@]4(O)[C@@H](C2)N(CC2CC2)CC[C@]314` [Naltriben methanesulfonate], the “Z Score” value is on record as −0.3606. For the same compound, the Z score under setting [1] was −0.361. Under setting [3], the Activity entry is on record as “no”.
Turning to `CCCC1O[C@@H]2C[C@H]3[C@@H]4CCC5=CC(=O)C=C[C@]5(C)[C@H]4[C@@H](O)C[C@]3(C)[C@]2(C(=O)CO)O1` (some centres unmarked) [Budesonide], under setting [4], the “Z Score” value is reported as −1.994. The compound also registered a Z score under setting [5] of −1.994.
With `C[C@H]1C[C@H]2[C@@H]3CCC4=CC(=O)C=C[C@]4(C)[C@@]3(Cl)[C@@H](O)C[C@]2(C)[C@@]1(O)C(=O)CO` [Beclomethasone], the “Z Score” value under setting [6] was determined as 0.267. Under setting [7], this compound gave a Z score of 0.267. Also, the Activity entry under setting [8] is listed as “no”.
Take `Cc1ccc(O)c(N=Nc2ccccc2)n1` [SIB 1757]: the “Z Score” value is listed as −1.752. Moreover, the Z score under setting [1] is −1.752. For the same compound, under setting [3], the Activity result was “no”.
In the case of `CC(C)c1cccc(C(C)C)c1O` [Propofol], the Activity entry was “no”, the “Z Score” value was 0.3768 and the Z score was found to be 0.377.
As for `CCCc1c(OCCCOc2ccc(OCC(=O)O)cc2)ccc(C(C)=O)c1O` [L-165,041], the “Z Score” value was determined as 0.3062. In addition, the Z score under setting [1] turned out to be 0.306. Under setting [2], the Activity entry was “no”.
`CCN(CC)CCNC(=O)c1ccc(NC(C)=O)cc1.Cl` [N-Acetylprocainamide hydrochloride]: the “Z Score” value is −4.557. The Z score under setting [1] is on record as −4.557. Also, the Activity entry under setting [9] is recorded as “yes”.
Turning to `COC(=O)[C@@H](N)Cc1ccc(O)c(O)c1.Cl` [L-3,4-Dihydroxyphenylalanine methyl ester hydrochloride], the “Z Score” value under setting [6] is reported as 0.2769. Moreover, the Z score under setting [5] came to 0.277. In addition, the Activity entry under setting [2] is given as “no”.
Regarding `Cl.N=C(N)NC(=N)Nc1cccc(Cl)c1` [1-(m-Chlorophenyl)-biguanide hydrochloride], the “Z Score” value worked out at 1.795. The Z score under setting [1] amounted to 1.795. Besides, the Activity result under setting [9] is “no”.
For the compound `COC(=O)[C@H](NC(=O)c1cc(-c2ccccc2)nc2ccccc12)c1ccccc1` [SB 218795], the “Z Score” value is recorded as 1.359. In addition, under setting [1], the Z score is given as 1.359. In addition, the Activity entry under setting [2] is recorded as “no”.
For the compound `Cn1ccc2cc3c(cc21)CCN3C(=O)Nc1cccnc1` [SB 206553 hydrochloride], the “Z Score” value is given as −1.365. Further, the Z score under setting [7] is listed as −1.365. For the same compound, under setting [8], the Activity result was “no”.
Take `COc1cc2c(cc1OC)-c1c/c(=N\c3c(C)cc(C)cc3C)n(C)c(=O)n1CC2` [Trequinsin hydrochloride]: under setting [10], the “Z Score” value is recorded as −0.9709. Under setting [7], this compound yielded a Z score of −0.971. In addition, the Activity entry under setting [8] is reported as “no”.
On to `Nc1ccn([C@H]2CC[C@@H](CO)O2)c(=O)n1` [2′,3′-dideoxycytidine], for which the “Z Score” value under setting [4] was −1.367. The Z score under setting [1] is −1.367. For the same compound, the Activity result under setting [9] is “no”.
Consider `NC(N)=NCCCCN=C(N)N` [Arcaine sulfate], for which the “Z Score” value under setting [10] is recorded as −0.3299. Under setting [1], this compound gave a Z score of −0.330. Besides, the Activity result under setting [3] was “no”.
Consider `O=Nc1ccc2oc(=O)ccc2c1` [6-Nitroso-1,2-beazopyrone], for which the “Z Score” value came to 0.01132.
As to `NC1(C(=O)O)CCc2cc(C(=O)O)ccc21` (centres unmarked) [AIDA], the “Z Score” value amounted to 0.154. The Z score under setting [7] amounted to 0.154. Also, under setting [8], the Activity entry is listed as “no”.
Regarding LY-367,265, the “Z Score” value was −0.407. Also, the Z score under setting [1] was −0.407. In addition, under setting [2], the Activity entry is listed as “no”.
On to `COc1cc(C(O)CN)ccc1O.Cl` (racemic) [(±)-Normetanephrine hydrochlodride], for which the Z score under setting [1] is reported as −1.796. Under setting [11], the Activity entry was “no”.
`N[C@@H](C(=O)N[C@@H]1C(=O)N2C(C(=O)O)=C(Cl)CS[C@H]12)c1ccccc1` [Cefaclor]: under setting [4], the “Z Score” value is given as −3.009. The compound further returned a Z score under setting [1] of −3.009. For the same compound, the Activity result under setting [9] was “yes”.
For the compound `c1ccc(C2CC2)c(OCC2=NCCN2)c1` [Cirazoline hydrochloride], the “Z Score” value under setting [6] stood at 0.4239. Under setting [5], the Z score turned out to be 0.424. Also, under setting [2], the Activity result is given as “no”.
As to `CC(C)(C)NCC(O)c1ccccc1Cl` (centres unmarked) [Tulobuterol hydrochloride], the “Z Score” value under setting [4] was −1.767. Under setting [1], this compound displayed a Z score of −1.767. The Activity entry under setting [3] is given as “no”.
Turning to `C[C@H](CS)C(=O)N1CCC[C@H]1C(=O)O` [Captopril], under setting [4], the “Z Score” value was −1.285. In addition, the Z score under setting [5] is listed as −1.285. In addition, under setting [2], the Activity result is recorded as “no”.
In the case of L-Hyoscyamine, the Activity result is recorded as “no”, the “Z Score” value was −0.661 and the Z score is reported as −0.661.
Turning to `CC(N)C(=O)OC(C)(C)Cc1ccc(Cl)cc1` (centres unmarked) [Alaproclate hydrochloride], under “168 h, 3 µM”, the “Z Score” value is −0.1725 and the Z score is −0.172. The Activity result under setting [8] is listed as “no”.
Turning to `N=C(N)NOCC[C@H](N)C(=O)O.O=S(=O)(O)O` [L-Canavanine sulfate], the “Z Score” value is reported as −0.9024. Also, under setting [5], the Z score is −0.902. Also, the Activity result under setting [2] is recorded as “no”.
With `CNC(=O)OCC[N+](C)(C)C.[Cl-]` [Methylcarbamylcholine chloride], the “Z Score” value is listed as 1.913. Moreover, the Z score under setting [1] was 1.913. In addition, the Activity entry under setting [11] is given as “no”.
With `CC(=O)O[C@]1(C(C)=O)CC[C@H]2[C@@H]3C=C(Cl)C4=CC(=O)[C@@H]5C[C@@H]5[C@]4(C)[C@H]3CC[C@@]21C` [Cyproterone acetate], under setting [4], the “Z Score” value was −1.803. Under setting [5], this compound returned a Z score of −1.803. For the same compound, the Activity entry under setting [2] was “no”.
`CCNC(=O)[C@H]1O[C@@H](n2cnc3c(NCc4ccccc4)ncnc32)[C@H](O)[C@@H]1O` [N6-Benzyl-5′-N-ethylcarboxamidoadenosine]: the “Z Score” value under setting [10] is given as −0.7976. Further, the Z score under setting [5] was −0.798. Further, under setting [2], the Activity entry was “no”.
Regarding `COc1ccc(/C=C/C(=O)Nc2ccccc2C(=O)O)cc1OC` [Tranilast], the “Z Score” value under setting [6] turned out to be 0.1736. This compound showed a Z score under setting [7] of 0.174.
Regarding `C=CC[C@H](N)C(=O)O` [L-allylglycine], under “168 h, 3 µM”, the “Z Score” value is on record as −1.155 and the Z score is reported as −1.155. Moreover, under setting [8], the Activity entry is reported as “no”.
Turning to `CN1CCC(=C2c3ccccc3C=Cc3ccccc32)CC1` [Cyproheptadine hydrochloride], under “168 h, 3 µM”, the “Z Score” value is 1.232 and the Z score worked out at 1.232. Moreover, under setting [2], the Activity entry is listed as “no”.
For the compound `Br.CCCN(CCC)C1CCc2cccc(O)c2C1` (centres unmarked) [(B1)-8-Hydroxy-DPAT hydrobromide], the “Z Score” value worked out at 0.6561.
Turning to `NC(=NCc1ccccc1)NC(=O)c1nc(Cl)c(N)nc1N` [Benzamil hydrochloride], the “Z Score” value under setting [10] is −1.054. This compound also yielded a Z score under setting [5] of −1.054. Under setting [2], the Activity result is “no”.
For the compound `CC[C@H](CO)Nc1nc(NCc2ccccc2)c2ncn(C(C)C)c2n1` [Roscovitine], the Activity result was “no”, the “Z Score” value is 0.00273 and the Z score is 0.003.
Turning to `Cl.NCCNC(=O)c1ccc(Cl)cc1` [Ro 16-6491 hydrochloride], the “Z Score” value is listed as −2.181. Besides, the Z score under setting [1] is given as −2.181. Moreover, the Activity result under setting [3] was “no”.
Regarding `CSc1ccc(C(=O)c2[nH]c(=O)[nH]c2C)cc1` [Enoximone], the “Z Score” value under setting [10] is on record as −0.6237. The same compound registered a Z score under setting [5] of −0.624. The Activity result under setting [2] is reported as “no”.
Consider `N[C@H](C(=O)O)c1cc(O)no1` [(B1)-Ibotenic acid], for which the “Z Score” value is listed as −1.65.
`CCCN(CCc1ccccc1)C1CCc2c(O)cccc2C1.Cl` (racemic) [(±)-PPHT hydrochloride] came in with a Z score under setting [1] of −1.915. For the same compound, the Activity result under setting [9] is “no”.
`NC(=O)C(=O)[O-].[Na+]` [Sodium Oxamate]: where the note is “168 h, 3 µM”, the “Z Score” value was 0.7449 and the Z score worked out at 0.745. Moreover, under setting [3], the Activity result was “no”.
Consider `CC(C)(C)c1onc(OCP(=O)(O)O)c1CC(N)C(=O)O` (centres unmarked) [ATPO], for which the “Z Score” value is −1.68. This compound had a Z score under setting [7] of −1.680. Under setting [8], the Activity entry is “no”.
Regarding `CC1=C[C@@H]2c3cccc4[nH]cc(c34)C[C@H]2N(C)C1` [Agroclavine], the “Z Score” value was −0.9109. Besides, under setting [7], the Z score was −0.911. The Activity entry under setting [8] is listed as “no”.
`Cl.OC(CCN1CCCCC1)(c1ccccc1)C1CCCCC1` (centres unmarked) [Trihexylphenidyl hydrochloride] gave a Z score under setting [7] of 1.215. Further, under setting [8], the Activity result is on record as “no”.
For the compound `CNCC[C@@H](Oc1ccccc1C)c1ccccc1` [Tomoxetine], the Activity result is given as “no”. Under setting [6], the “Z Score” value was determined as 0.1672. Besides, under setting [7], the Z score stood at 0.167.
On to `CCOC(=O)C1=C[C@]2(CC)CCCN3CCc4c(n1c1ccccc41)[C@@H]32` [Vinpocetine], for which the “Z Score” value under setting [6] came out at 0.4329. For the same compound, under setting [7], the Z score turned out to be 0.433. Moreover, the Activity result under setting [8] is “no”.
With `CNCC(O)c1ccc(O)c(O)c1.Cl` (centres unmarked) [(B1)-Epinephrine hydrochloride], under setting [10], the “Z Score” value is given as −0.3279.
`c1ccc2c(CC3=NCCN3)cccc2c1` [Naphazoline hydrochloride]: the “Z Score” value under setting [4] is given as −1.724. Under setting [1], the Z score was −1.724. Moreover, the Activity result under setting [11] is reported as “no”.
